US20140088192A1, “SUBCUTANEOUSLY INFUSIBLE LEVODOPA PRODRUG COMPOSITIONS AND METHODS OF INFUSION” (SynAgile Corporation, priority 2010, published 2014)

Assays:
[1] = Achievable concentration and density of concentrated LDEE salt solutions
Method: The pH was adjusted to 4.60 by adding 160 mg of sodium acetate.

volunteer = assay: Intramuscular / subcutaneous infusion of LDEE.HCl in human volunteers, local tolerability; type: in vivo
Method: The flow rate was 0.6 mL/h. […] The protrusion disappeared after 2 days.
A healthy volunteer took one Lodosyn (carbidopa), 25 mg pill, at each of the morning, midday and evening of the day preceding the infusion, and in the morning, midday and evening of the day of the infusion. After adjusting the pH of a stored solution of pH 2.4 and 2.5 mL volume of 2.9 M LDEE.HCl by adding to it 0.16 mL of 1.5 M trisodium citrate solution to about pH 4.6±0.1, a 2.7 M LDEE.HCl solution was obtained. Using a Medtronic Minimed Paradigm 723, a Medtronic Minimed Silhouette, 43 inches, 17 mm cannula infusion set, a Medtronic Minimed Sil-Serter infusion set insertion system, the volunteer infused 0.67 mL of the 2.7 M LDEE.HCl solution into their abdomen over a period of 9 hours. The infusion site was 7-8 cm below the ribs. The initial 4 hr infusion was at a rate of 0.062 mL/hr (37.5 mg of LDEE/hr), followed by 0.082 mL/hr (50 mg of LDEE/hr) in the next 5 hours. The total infused volume contained 406 mg LDEE, the equivalent to 356 mg L-DOPA.
A healthy volunteer took one Lodosyn (carbidopa), 25 mg pill, at each of the evening preceding the infusion, and in the morning, midday and evening of the day of the infusion. After adjusting the pH to about pH 4.7±0.3 of a stored solution of pH 2.4 and 2.5 mL volume of 2.9 M LDEE.HCl by adding 0.16 mL of 1.5 M trisodium citrate solution, a 2.7 M LDEE.HCl solution was obtained. Using a Medtronic Minimed Paradigm 723, a Medtronic Minimed Silhouette, 43 inches, 17 mm cannula infusion set, and a Medtronic Minimed Sil-Serter infusion set insertion system, the a volunteer infused 0.67 mL of the 2.7 M LDEE.HCl solution into the frequently exercised and occasionally massaged outside of the upper arm over a period of 9 hours. The initial 4 hr infusion was at a rate of 0.062 mL/hr (37.5 mg of LDEE/hr), followed by 0.082 mL/hr (50 mg of LDEE/hr) in the next 5 hours. The total infused volume contained 400 mg LDEE, the equivalent to 351 mg L-DOPA.
A healthy volunteer took one Lodosyn (carbidopa), 25 mg pill, at each of the evening of the day preceding the infusion, and in the morning, mid-day and evening of the day of the infusion. 1 mL of the 2.9 M LDEE.HCl stored solution of pH 2.4, 0.04 mL of a 1.5 M trisodium citrate solution and 2 mL sterile water were syringed into the reservoir of a Medtronic Minimed Paradigm 723 pump. This pump and a Medtronic Minimed Silhouette, 43 inches, 17 mm cannula infusion set inserted with a Medtronic Minimed Sil-Serter infusion set insertion system were used. The volunteer infused 1.85 mL, or 396 mg LDEE (equivalent to 347 mg L-DOPA) of the now 3× diluted 0.95 M LDEE solution into their upper arm over a period of 9 hours at two rates: First near 37.5 mg/hr (0.175 mL/hr) for 4 hours then near 50 mg/hr (0.233 mL/hr) for 5 hours. During the course of the infusion the volunteer periodically exercised their arm and gently massaged the infusion site.
A healthy volunteer took one Lodosyn (carbidopa), 25 mg pill, at each of the evening of the day preceding the infusion, and in the morning, mid-day and evening of the day of the infusion. The reservoir of a Medtronic Minimed Paradigm 723 pump was primed (to assure that all of the 3 mL in the reservoir will be infused) then the reservoir was filled with 0.6 mL of the 2.9 M LDEE.HCl stored solution of pH 2.4, 0.024 mL of a 1.5 M trisodium citrate solution and 2.4 mL sterile water by syringing. The pump, a Medtronic Minimed Silhouette, 43 inches, 17 mm cannula infusion set, and a Medtronic Minimed Sil-Serter infusion set insertion system were used. The volunteer infused 3 mL, or 400 mg LDEE (equivalent to 350 mg L-DOPA) of the now 5× diluted (i.e. 0.58 M) LDEE solution into their upper arm over a period of 9 hours at a flow rate of 0.33 mL/hr. […] The infusion ended at 7:30 pm. […]

[2] = intramuscular, right upper arm, about 0.45 mL of 2.3 M pH 4.5 over 45 min
[3] = s.c. abdomen, 0.67 mL of 2.7 M over 9 hours
[4] = s.c. exercised upper arm, 0.67 mL of 2.7 M over 9 hours
[5] = s.c. exercised upper arm, 1.85 mL of 0.95 M over 9 hours
[6] = s.c. upper arm, 3 mL of 0.58 M over 9 hours
[7] = s.c. upper arm, 10.7 mL of 0.48 M over 18 hours

## CCOC(=O)[C@@H](N)Cc1ccc(O)c(O)c1.Cl [LDEE.HCl, LDEE Hydrochloride]
[1]; aqueous solution
  concentration of aqueous solutions allowed by solubility: greater than 2.5 M
[1]; pH 4.60 (sodium acetate), ambient about 23±2° C.
  concentration of clear solution (high solubility): about 2.5 M
volunteer; intramuscular, about 0.45 mL of 2.3 M pH 4.5
  time to disappearance of the protrusion: 2 days
volunteer; [2]
  local reaction after infusion: small nodule which spread after 4 hours into an about 1 mm high, 2-3 cm radius protrusion
  pain, inflammation, color change, sensitivity at the site: no pain, inflammation, color change or sensitivity
volunteer; s.c. abdomen, 0.24 mL of 2.3 M pH 4.5 over about 90 min in 8 boluses
  pain or irritation: felt no pain or irritation during or after the infusion
volunteer; [3]
  course of induration after 24 hours: became diffuse and partly, but not completely, subsided
  other adverse events: no other adverse events
  swelling / induration at infusion site: Mild swelling was observed and an induration of approximately 2.5 cm diameter developed
volunteer; s.c. abdomen, 0.67 mL of 2.7 M pH about 4.6 over 9 hours, oral carbidopa
  pain or redness: virtually no pain or redness
volunteer; [4]
  course of swelling: disappeared after a week
  other adverse events: no other adverse events of any kind
  swelling at infusion site at end of infusion: about 7 cm long elongated mildly swollen region
volunteer; s.c. exercised upper arm, 0.67 mL of 2.7 M pH about 4.7 over 9 hours, oral carbidopa
  pain or redness: virtually no pain or redness
volunteer; [5]
  course of swelling: disappeared gradually in about three days
  other adverse events: no other adverse events
  swelling at infusion site at end of infusion: very slightly swollen region of about 4 cm diameter
volunteer; s.c. exercised upper arm, 1.85 mL of 0.95 M over 9 hours, oral carbidopa
  pain or redness: no pain or redness
volunteer; [6]
  adverse events: no adverse events
  local findings at end of infusion: very slight reddening of a 2×4 cm skin area and a very slightly harder than normal 2 cm diameter zone under the skin
  site on the following morning: the skin and infused tissue appeared normal
volunteer; s.c. upper arm, 3 mL of 0.58 M over 9 hours, oral carbidopa
  pain during infusion: felt no pain during the infusion
volunteer; [7]
  adverse events: no adverse events
  swelling: swelling most of which subsided within 8 hours
  time after which swelling was no longer visible: 12 h
volunteer; s.c. upper arm, 10.7 mL of 0.48 M pH 4.8-5.0 (5.1 millimoles) over 18 hours, oral carbidopa
  pain, reddening, inflammation at end of infusion: no pain, reddening or inflammation
